Source: US8834841B2, “Imaging agents” (priority 2005, dated 2014)

Legend:
[1] = test system: SKOV3 Ovarian Tumor Cells Implanted SC in SCID Mice; assay: tissue distribution, SKOV3 tumor-bearing SCID mice; format: in vivo
Procedure: For the in vitro amino acid uptake studies, all cells can be grown to monolayer confluency in T-175 culture flasks [Corning, Corning, N.Y.] (approx. 1×10^8 cells/flask) in Dulbecco's Modified Eagle's Medium (DMEM) [Sigma, St. Louis, Mo.] in a humidified incubator (37° C., 5% CO2/95% air). Media are supplemented with 10% fetal calf serum [Hyclone, Logan, Utah], and antibiotics (10,000 U/ml penicillin and 10 mg/ml streptomycin) (Sigma, St. Louis, Mo.). For tissue culture passage, monolayer cells are detached by gentle trypsinization, resuspended in complete media, and split 1:10 into new T-flasks. Cultures are passaged weekly, and fed fresh media every 2 to 3 days. To initiate tumor growth in SCID mice, 1×10^6 cells are injected s.c. bilaterally into the flanks (inguinal region) of the recipient animals using a 1 ml syringe with a 27 gauge needle. Ex vivo experiments can be performed with animals containing tumors weighing between 500 mg and 1 g, as estimated by caliper measurement (tumor weight=(π/6)*abc, where a, b and c are the tumor length, width and height, respectively). The compounds of the invention are further evaluated for their tumor specificity and selectivity in tumor-bearing animal models. One can evaluate and compare the transport, accumulation and tissue distribution of each compound in these in vivo animal studies. Tissue distribution of the compounds is measured in SCID mice (average weight, 20-25 g) bearing human tumors as follows. The candidate radioligands (20 uCi in 0.4 ml 0.9% NaCl) are injected into the tail vein of tumor-bearing mice. […] Tissues (blood, heart, liver, lungs, kidneys, bone, thyroid, muscle, brain and tumor) are excised, rinsed in saline, and blotted dry. The tissues are weighed, placed into 12×75 mm glass vials, the radioactivity determined with a gamma counter, and the percent dose/gram calculated. Total activities of blood and muscle are calculated by assuming that they account for 7% and 40% of the total body mass, respectively.

U87 glial blastoma = assay: in vitro amino acid uptake, U87 cells; format: cell-based, human
Description: (§1) The inventive compounds have been evaluated in vitro for tumor binding specificity (i.e. uptake cells) using a variety of tumor cell lines available in the art, along with reference compounds such as Me-AIB and BCH. Detailed description of these assays can be found in Martarello et al. (2002) Journal of Medicinal Chemistry, 45:2250-2259 and McConathy et al. (2003) Nuclear Medicine and Biology, 30:477-490. These, so called “amino acid uptake studies” are typically carried out with radiolabeled compounds in at least five phenotypically different human tumor cell lines (e.g. A549 lung carcinoma, MB468 breast carcinoma, DU145 prostate carcinoma, SKOV3 ovarian carcinoma, and U87 glial blastoma). These tumor cell lines can be grown either in vitro or in vivo with severe combined immunodeficiency (SCID) mice as a host. The fore-mentioned tumor cell lines are available at the Winship Cancer Institute of Emory University.
(§2) For the in vitro amino acid uptake studies, all cells can be grown to monolayer confluency in T-175 culture flasks [Corning, Corning, N.Y.] (approx. 1×10^8 cells/flask) in Dulbecco's Modified Eagle's Medium (DMEM) [Sigma, St. Louis, Mo.] in a humidified incubator (37° C., 5% CO2/95% air). Media are supplemented with 10% fetal calf serum [Hyclone, Logan, Utah], and antibiotics (10,000 U/ml penicillin and 10 mg/ml streptomycin) (Sigma, St. Louis, Mo.). For tissue culture passage, monolayer cells are detached by gentle trypsinization, resuspended in complete media, and split 1:10 into new T-flasks. […]
(§3) In the in vitro studies the uptake rate of each amino acid compound is measured in each tumor line, as well as the dominant transport mechanisms of each tumor cell line. After trypsinization, cells are resuspended in serum-free media, then counted on a hemocytometer, with viability assessed through Trypan blue staining. […] The vials are placed in a Cobra-II gamma counter (Packard, Meriden, Conn.), with the activity per cell number determined. […] Saline washes are performed as described above, and the filtered cells radioactivity determined on the gamma counter. […]

DU145 prostate carcinoma = assay: in vitro amino acid uptake, DU145 cells; format: cell-based, human
Description: as §1, §2, §3

For `NC1(C(=O)O)CCC1[18F]` [Anti-R,S 2-[^18F]FACBC, (R,S) anti-1-amino-2-[^18F]fluorocyclobutyl-1-carboxylic acid], the “% Dose/g blood” value ([1]; 15 Minutes) was 3.01 % Dose/g, the “% Dose/g bone” value ([1]; 15 Minutes) was 1.40 % Dose/g and the “% Dose/g brain” value ([1]; 15 Minutes) was 0.18 % Dose/g. The “% Dose/g heart” value ([1]; 15 Minutes) was 2.37 % Dose/g, the “% Dose/g kidney” value ([1]; 15 Minutes) was 8.70 % Dose/g and the “% Dose/g liver” value ([1]; 15 Minutes) was 2.62 % Dose/g. The “% Dose/g lung” value ([1]; 15 Minutes) was 3.96 % Dose/g, the “% Dose/g muscle” value ([1]; 15 Minutes) was 1.14 % Dose/g and the “% Dose/g pancreas” value ([1]; 15 Minutes) was 34.27 % Dose/g. The “% Dose/g spleen” value ([1]; 15 Minutes) was 5.00 % Dose/g, the “% Dose/g tumor” value ([1]; 15 Minutes) was 4.89 % Dose/g and the “% Dose/g blood” value ([1]; 30 Minutes) was 2.22 % Dose/g. The “% Dose/g bone” value ([1]; 30 Minutes) was 1.46 % Dose/g, the “% Dose/g brain” value ([1]; 30 Minutes) was 0.21 % Dose/g and the “% Dose/g heart” value ([1]; 30 Minutes) was 2.16 % Dose/g. For the same compound, the “% Dose/g kidney” value ([1]; 30 Minutes) was 6.12 % Dose/g, the “% Dose/g liver” value ([1]; 30 Minutes) was 2.49 % Dose/g and the “% Dose/g lung” value ([1]; 30 Minutes) was 2.65 % Dose/g. For the same compound, the “% Dose/g muscle” value ([1]; 30 Minutes) was 1.21 % Dose/g, the “% Dose/g pancreas” value ([1]; 30 Minutes) was 31.88 % Dose/g and the “% Dose/g spleen” value ([1]; 30 Minutes) was 5.22 % Dose/g. The “% Dose/g tumor” value ([1]; 30 Minutes) was 5.56 % Dose/g, the “% Dose/g blood” value ([1]; 60 Minutes) was 0.94 % Dose/g and the “% Dose/g bone” value ([1]; 60 Minutes) was 0.91 % Dose/g. For the same compound, the “% Dose/g brain” value ([1]; 60 Minutes) was 0.15 % Dose/g, the “% Dose/g heart” value ([1]; 60 Minutes) was 1.40 % Dose/g and the “% Dose/g kidney” value ([1]; 60 Minutes) was 2.27 % Dose/g. For the same compound, the “% Dose/g liver” value ([1]; 60 Minutes) was 1.28 % Dose/g, the “% Dose/g lung” value ([1]; 60 Minutes) was 1.26 % Dose/g and the “% Dose/g muscle” value ([1]; 60 Minutes) was 1.03 % Dose/g. The “% Dose/g pancreas” value ([1]; 60 Minutes) was 17.57 % Dose/g, the “% Dose/g spleen” value ([1]; 60 Minutes) was 2.57 % Dose/g and the “% Dose/g tumor” value ([1]; 60 Minutes) was 4.53 % Dose/g. The “% Dose/g blood” value ([1]; 120 Minutes) was 0.53 % Dose/g, the “% Dose/g bone” value ([1]; 120 Minutes) was 0.94 % Dose/g and the “% Dose/g brain” value ([1]; 120 Minutes) was 0.16 % Dose/g. For the same compound, the “% Dose/g heart” value ([1]; 120 Minutes) was 1.00 % Dose/g, the “% Dose/g kidney” value ([1]; 120 Minutes) was 1.37 % Dose/g and the “% Dose/g liver” value ([1]; 120 Minutes) was 0.67 % Dose/g. For the same compound, the “% Dose/g lung” value ([1]; 120 Minutes) was 0.68 % Dose/g, the “% Dose/g muscle” value ([1]; 120 Minutes) was 0.65 % Dose/g and the “% Dose/g pancreas” value ([1]; 120 Minutes) was 10.42 % Dose/g. For the same compound, the “% Dose/g spleen” value ([1]; 120 Minutes) was 1.51 % Dose/g, the “% Dose/g tumor” value ([1]; 120 Minutes) was 3.39 % Dose/g and the “% Dose Uptake/0.5e6 Cells” value (U87 glial blastoma; U87, No inhibitor) was 8.28 +/− 0.45 % Dose Uptake/0.5e6 Cells. For the same compound, the “% Dose Uptake/0.5e6 Cells” value (U87 glial blastoma; U87, inhibitor BCH (10 mM)) was 2.48 +/− 0.23 % Dose Uptake/0.5e6 Cells, the “% Dose Uptake/0.5e6 Cells” value (U87 glial blastoma; U87, inhibitor MeAlB (10 mM)) was 5.41 +/− 0.64 % Dose Uptake/0.5e6 Cells and the “% Dose Uptake/0.5e6 Cells” value (DU145 prostate carcinoma; DU145, No inhibitor) was 6.40 +/− 0.60 % Dose Uptake/0.5e6 Cells. For the same compound, the “% Dose Uptake/0.5e6 Cells” value (DU145 prostate carcinoma; DU145, inhibitor BCH (10 mM)) was 1.78 +/− 0.20 % Dose Uptake/0.5e6 Cells and the “% Dose Uptake/0.5e6 Cells” value (DU145 prostate carcinoma; DU145, inhibitor MeAlB (10 mM)) was 2.07 +/− 0.26 % Dose Uptake/0.5e6 Cells.
